The values that follow come from ChEMBL document CHEMBL1201862, “PubChem BioAssay data set” (2004).

Among the test systems are A549; BT-549; EKVX; HL-60; HOP-62; M14; MCF7; MDA-MB-231; NCI-H522; OVCAR-5; PC-3; RXF 393; SF-295; SK-OV-3; SW-620; UACC-62; HCC 2998; HCT-15; Hs-578T.
Holding throughout (assay): DTP human tumour cell line panel, 48 h

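Each compound was tested at five concentrations against cells in 96-well plates for 48 hours. Here, GI50 denotes the concentration required for 50% inhibition of growth.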 Activity calls are given as the source filed them. Rule as the data show it: active = GI50 up to about 1.1 µM and inactive = higher. Some results are limits rather than exact numbers.

Broadly, the GI50 is the concentration giving 50% growth inhibition. On to `CCOc1ccc(N2C(=O)NC3(c4ccccc4)N(C)C(=O)N(C)C23c2ccccc2)cc1` (stereo not drawn), for which the GI50 was 56.8 µM (inactive) in the assay on A549; 83.9 µM (inactive) in the assay with BT-549; > 100 µM (inactive) with EKVX; 75.2 µM (inactive) with HL-60; > 100 µM (inactive) in the assay with HOP-62; > 100 µM (inactive) in the assay with M14. The GI50 is 46.2 µM (inactive) in the assay on MCF7; 83.6 µM (inactive) with MDA-MB-231; 33.9 µM (inactive) in the assay with NCI-H522; > 100 µM (inactive) with OVCAR-5; 41 µM (inactive) in the assay with PC-3; 66.4 µM (inactive) in the assay on RXF 393. Besides, the GI50 in the assay on SF-295 is 97.3 µM (inactive); with SK-OV-3, > 100 µM (inactive); with SW-620 it was > 100 µM (inactive); in the assay with UACC-62, 86.3 µM (inactive).

On to `CC1CN=C(N(C(=O)Nc2ccc(Cl)cc2)c2cccc(Cl)c2)S1` (stereo not drawn), for which the GI50 was 25.6 µM (inactive) in the assay with A549; 31.2 µM (inactive) in the assay on EKVX; 20.9 µM (inactive) in the assay with HCC 2998; 11.3 µM with HCT-15; 48.2 µM (inactive) in the assay with HL-60; > 100 µM (inactive) with HOP-62. For the same molecule, the GI50 in the assay on Hs-578T is 50.1 µM (inactive); in the assay on M14 it was 7.24 µM (inactive); in the assay on MCF7 it was 34.7 µM (inactive); in the assay on MDA-MB-231 it was 39.3 µM (inactive); with OVCAR-5, > 100 µM (inactive); in the assay with PC-3, 25.2 µM (inactive). Also, the GI50 with SF-295 is 20.1 µM (inactive); in the assay on SK-OV-3 it was > 100 µM (inactive); in the assay on SW-620 it was 41.9 µM (inactive).

With `O=C(Nc1cc2c(=O)[nH]c3ccccc3c2oc1=O)c1cnccn1`, the GI50 in the assay with A549 is > 100 µM (inactive); in the assay with BT-549, > 100 µM (inactive); in the assay on EKVX, > 100 µM (inactive); with HCC 2998, > 100 µM (inactive); in the assay on HCT-15 it was above 100 µM; in the assay on M14, > 100 µM (inactive). Further, the GI50 in the assay on MCF7, with MDA-MB-231, with NCI-H522, with OVCAR-5, in the assay on PC-3 and in the assay on RXF 393 was > 100 µM (inactive) each time. The GI50 in the assay on SF-295, with SK-OV-3, in the assay on SW-620 and with UACC-62 was > 100 µM (inactive) each time.

`CSc1cc(Cl)c(C)cc1S(=O)(=O)NC(=O)NNc1ccc(Cl)cc1`: the GI50 in the assay on A549 is > 100 µM (inactive); with EKVX, > 100 µM (inactive); with HCC 2998, 36.2 µM (inactive); in the assay with HCT-15 it was above 100 µM; with HOP-62, > 100 µM (inactive); in the assay with Hs-578T, 34.1 µM (inactive). The GI50 with M14 is > 100 µM (inactive); with MCF7, > 100 µM (inactive); with MDA-MB-231, > 100 µM (inactive); with NCI-H522, 70.3 µM (inactive); with OVCAR-5, > 100 µM (inactive); with PC-3 it was 80.5 µM (inactive). Also, the GI50 in the assay on RXF 393 is 99.1 µM (inactive); with SF-295, > 100 µM (inactive); with SK-OV-3, > 100 µM (inactive); in the assay with SW-620, > 100 µM (inactive).

As for `CC1C(c2ccc(F)cc2)c2cc3c(cc2OC1N1CCCC1)OCO3` (stereo not drawn), the GI50 with A549 is 34.3 µM (inactive); in the assay on EKVX, 34.1 µM (inactive); in the assay with HCC 2998 it was 38.6 µM (inactive); in the assay on HCT-15, 34.4 µM; with HOP-62, 46.3 µM (inactive); in the assay with Hs-578T, 18 µM (inactive). Further, the GI50 was 54.2 µM (inactive) with M14; 45.4 µM (inactive) with MCF7; 29 µM (inactive) with NCI-H522; 47.5 µM (inactive) in the assay on OVCAR-5; 44.2 µM (inactive) in the assay on PC-3; 27.6 µM (inactive) in the assay on SF-295. For the same molecule, the GI50 was 47 µM (inactive) with SW-620 and 55 µM (inactive) in the assay with UACC-62.

For `COc1ccc(-c2nc3cc(F)ccc3s2)cc1O`, the GI50 with A549 was 34.1 µM (inactive); in the assay with BT-549, 17.2 µM (inactive); in the assay with EKVX, 6.59 µM (inactive); in the assay on HCC 2998 it was 2.57 µM (inactive); in the assay on HCT-15 it was 3.05 µM; with HL-60 it was 32.6 µM (inactive). Moreover, the GI50 in the assay on M14 is 26.5 µM (inactive); in the assay with MCF7, 0.668 µM (active); in the assay with MDA-MB-231 it was 39.6 µM (inactive); with NCI-H522 it was 16.3 µM (inactive); with OVCAR-5 it was 48.6 µM (inactive); in the assay on PC-3, 34.7 µM (inactive). Further, the GI50 in the assay on RXF 393 was 36.8 µM (inactive); with SF-295 it was 22.5 µM (inactive); in the assay with SK-OV-3, 29.8 µM (inactive); with SW-620, 87.9 µM (inactive); with UACC-62 it was 30.7 µM (inactive).

Consider `Cc1cccc2c1Oc1ncccc1C2NC(=O)CN(C)C` (stereo not drawn), for which the GI50 in the assay on A549 was > 10 µM (inactive); with BT-549, > 10 µM (inactive); with EKVX, > 10 µM (inactive); with HCC 2998, > 10 µM (inactive); in the assay with HCT-15, above 10 µM; in the assay with HL-60, > 10 µM (inactive). In addition, the GI50 with M14, in the assay with MCF7, in the assay with NCI-H522, in the assay on OVCAR-5, with PC-3 and in the assay on SF-295 was > 10 µM (inactive) throughout. The GI50 with SK-OV-3, with SW-620 and in the assay on UACC-62 was > 10 µM (inactive) throughout.

`CC1=NN(c2cccc(Cl)c2)C2(C1=Cc1ccc(N(C)C)cc1)C(Cl)C(=O)N2c1nc2ccccc2s1` (stereo not drawn): the GI50 is > 100 µM (inactive) in the assay on EKVX; 17.8 µM (inactive) with HCC 2998; 77.4 µM in the assay on HCT-15; > 100 µM (inactive) in the assay with HL-60; 17.8 µM (inactive) in the assay on HOP-62; 23.5 µM (inactive) in the assay on Hs-578T. In addition, the GI50 was 18.7 µM (inactive) in the assay with M14; 70.5 µM (inactive) with MCF7; 46.8 µM (inactive) with MDA-MB-231; 19.1 µM (inactive) in the assay with NCI-H522; > 100 µM (inactive) with OVCAR-5; > 100 µM (inactive) with PC-3. Besides, the GI50 is 20.3 µM (inactive) with RXF 393, 67.1 µM (inactive) with SF-295, 34.4 µM (inactive) with SK-OV-3 and 19.6 µM (inactive) in the assay with SW-620.

On to `CC1(C)CC(=O)c2c(N)n[nH]c2C1`, for which the GI50 in the assay with A549, in the assay on BT-549, with EKVX, in the assay with HCC 2998, in the assay on HL-60 and in the assay on HOP-62 was > 100 µM (inactive) throughout. For the same molecule, the GI50 with M14, in the assay with MCF7, in the assay on MDA-MB-231, in the assay with NCI-H522, with OVCAR-5 and with PC-3 was > 100 µM (inactive) in each case. Further, the GI50 in the assay on RXF 393, with SF-295, with SW-620 and in the assay on UACC-62 was > 100 µM (inactive) each time.

Take `O=C(Nc1ccccc1F)c1cc2ccc(O)cc2o/c1=N\c1cccc(C(F)(F)F)c1`: the GI50 in the assay on A549 is 3.18 µM (inactive); in the assay on BT-549, 2.67 µM (inactive); in the assay with EKVX, 3.76 µM (inactive); in the assay on HCC 2998, 8.2 µM (inactive); with HCT-15, 3.59 µM; in the assay with HL-60, 1.66 µM (inactive). The GI50 in the assay on HOP-62 is 7.91 µM (inactive); with Hs-578T, 1.94 µM (inactive); with M14, 5.18 µM (inactive); in the assay on MCF7, 2.94 µM (inactive); in the assay with NCI-H522, 2 µM (inactive); in the assay with OVCAR-5 it was 26.5 µM (inactive). The GI50 was 3.76 µM (inactive) with PC-3; 4.99 µM (inactive) with SF-295; 3.78 µM (inactive) in the assay with SK-OV-3; 3.08 µM (inactive) with SW-620; 3.81 µM (inactive) in the assay on UACC-62.

For `CC(NC1=NCCO1)c1ccccc1Cl` (stereo not drawn), the GI50 with A549 is > 100 µM (inactive); in the assay with EKVX, > 100 µM (inactive); in the assay with HCC 2998 it was > 100 µM (inactive); with HCT-15, above 100 µM; in the assay on HL-60, > 100 µM (inactive); in the assay on HOP-62 it was > 100 µM (inactive). Moreover, the GI50 in the assay with Hs-578T, in the assay on M14, in the assay with MCF7, in the assay on MDA-MB-231, in the assay with NCI-H522 and in the assay on OVCAR-5 was > 100 µM (inactive) each time. For the same molecule, the GI50 was 91 µM (inactive) in the assay on PC-3; > 100 µM (inactive) with RXF 393; > 100 µM (inactive) with SF-295; > 100 µM (inactive) in the assay on SK-OV-3; > 100 µM (inactive) in the assay on SW-620; > 100 µM (inactive) with UACC-62.

For `Cc1cccc(/C=N/NC(=S)N2CCCC2)n1`, the GI50 with A549 was 0.514 µM (active); in the assay with BT-549, 1.76 µM (inactive); in the assay with EKVX, 0.304 µM (active); in the assay on HCC 2998, 0.78 µM (active); in the assay on HCT-15, 0.138 µM; with HL-60, 0.0559 µM (active). The 50% growth inhibitory concentration (GI50) with HOP-62 is 0.209 µM (active); with M14, 0.133 µM (active); with MCF7, 2.91 µM (inactive); with MDA-MB-231, 0.133 µM (active); in the assay on NCI-H522, 0.0458 µM (active); with OVCAR-5 it was 0.132 µM (active). For the same molecule, the GI50 with PC-3 is 0.346 µM (active); in the assay with SF-295, 0.266 µM (active); in the assay on SW-620, 0.188 µM (active); with UACC-62, 0.296 µM (active).

For the molecule `COc1ccc(C)cc1NC(=S)C#N`, the GI50 is > 100 µM (inactive) in the assay with A549; 35.2 µM (inactive) in the assay on BT-549; 44.6 µM (inactive) with HCC 2998; 27.5 µM with HCT-15; > 100 µM (inactive) with HL-60; 29.6 µM (inactive) in the assay with HOP-62. Moreover, the GI50 in the assay on M14 was 30.5 µM (inactive); with MCF7 it was 32.2 µM (inactive); in the assay on MDA-MB-231, > 100 µM (inactive); with OVCAR-5, 29.6 µM (inactive); with PC-3 it was 26.4 µM (inactive); with RXF 393, 28.1 µM (inactive). In addition, the GI50 in the assay with SF-295 is 31.9 µM (inactive); in the assay on SK-OV-3, 27.8 µM (inactive); in the assay on SW-620, > 100 µM (inactive); in the assay with UACC-62, 34.4 µM (inactive).
